Experimental data: ChEMBL document CHEMBL1144972, “Benzo[f]naphtyridones: a new family of topical antibacterial agents active on multi-resistant Gram-positive pathogens” (2003)
In brackets after ≈: the same amount, converted by molar mass.

Tests used:
Format in all cases: functional
[1] = test system: Streptococcus pyogenes; test: Minimum inhibitory concentration against Streptococcus pyogenes Dig 7
[2] = test system: Staphylococcus aureus; test: Minimum inhibitory concentration against Staphylococcus aureus RN4220
[3] = test system: Staphylococcus aureus; test: Minimum inhibitory concentration against Staphylococcus aureus AS5155

Structure (SMILES) | MIC [1] [µg/mL] | MIC [2] [µg/mL] | MIC [3] [µg/mL]
Cn1cc(C(=O)O)c(=O)c2c3ccc(F)c(N4CCN(c5cccc(C(F)(F)F)c5)CC4)c3ncc21 | 16 (≈ 32 µM) | 2 (≈ 4 µM) | 4 (≈ 7.99 µM)
CCn1cc(C(=O)O)c(=O)c2cc(F)c(N3CCN(C)CC3)cc21 [PEFLOXACIN] | 8 (≈ 24 µM) | 0.5 (≈ 1.5 µM) | 64 (≈ 192 µM)
Cn1cc(C(=O)O)c(=O)c2c3cc(N4C[C@@]5(C)C[C@@H]4CC(C)(C)C5)c(F)cc3ncc21 | 4 (≈ 9.45 µM) | 2 (≈ 4.72 µM) | 2 (≈ 4.72 µM)
Cc1ccc(N2CCN(c3ccc4c(ncc5c4c(=O)c(C(=O)O)cn5C)c3F)CC2)cc1F | 16 (≈ 34.4 µM) | 4 (≈ 8.61 µM) | 2 (≈ 4.31 µM)
Cn1cc(C(=O)O)c(=O)c2c3cc(N4CCN(c5ccc(Cl)c(F)c5)CC4)c(Cl)c(F)c3ncc21 | 16 (≈ 30.8 µM) | 2 (≈ 3.85 µM) | 1 (≈ 1.93 µM)

Further lines, results first:

MIC [1] [µg/mL] | MIC [2] [µg/mL] | MIC [3] [µg/mL] | Structure (SMILES)
0.12 (≈ 0.24 µM) | 0.5 (≈ 0.999 µM) | 1 (≈ 2 µM) | C/C(=C\C(=O)OCCCCCCCCC(=O)O)C[C@@H]1OC[C@H](C[C@@H]2O[C@H]2[C@@H](C)[C@H](C)O)[C@@H](O)[C@H]1O [MUPIROCIN]
2 (≈ 4.01 µM) | 1 (≈ 2 µM) | 1 (≈ 2 µM) | Cc1ccc(N2CCN(c3cc4c(ncc5c4c(=O)c(C(=O)O)cn5C)c(F)c3Cl)CC2)cc1F
4 (≈ 10.4 µM) | 4 (≈ 10.4 µM) | 4 (≈ 10.4 µM) | Cn1cc(C(=O)O)c(=O)c2c3cc(F)c(N4CCCC(C)(C)C4)cc3ncc21
0.5 | 0.25 | 2 | C[N+](C)(C)CCO.Cn1cc(C(=O)[O-])c(=O)c2cc3cc(F)c(N4CCN(c5ccc(F)cc5)CC4)cc3nc21
